Tested on: polyglutamine-induced caspase-3 activation, cell assay
Experiment: blockers of polyQ-driven CASP3 activation – cell-based (AID 1583)

Row | SMILES | EC50
1 | CO[C@H]1[C@H](O)[C@@H](O[C@H]2CC[C@]3(C=O)C4CC[C@]5(C)[C@@H](C6=CC(=O)OC6)CC[C@]5(O)C4CC[C@@H]3C2)O[C@@H](C)[C@@H]1O (some centres undefined) | 0.0932 µM
2 | C[C@]12CCC3C(CC[C@]4(O)C[C@@H](O)CC[C@]34C=O)[C@@]1(O)CCC2C1=CC(=O)OC1 (some centres undefined) | 1.68 µM
3 | O[N+]1=CC=CCC1=S.On1ccccc1=S.[Zn] | 0.855 µM
4 | C[C@H]1O[C@@H](O[C@H]2[C@@H](O)C[C@H](O[C@H]3[C@@H](O)C[C@H](O[C@H]4CC[C@]5(C)C6CC[C@]7(C)[C@@H](C8=CC(=O)OC8)CC[C@]7(O)C6CC[C@@H]5C4)O[C@@H]3C)O[C@@H]2C)C[C@H](O)[C@@H]1O (some centres undefined) | 0.189 µM
5 | CCCCC(CC)CN=C(N)NC(N)=NCCCCCCN=C(N)NC(N)=NCC(CC)CCCC (centres undefined) | 1.67 µM
6 | CC(=O)[O][Hg][c]1ccccc1 | 1.74 µM
7 | CC(=O)O[C@H]1C[C@H](O[C@H]2[C@@H](O)C[C@H](O[C@H]3[C@@H](O)C[C@H](O[C@H]4CC[C@@]5(C)C(CCC6C5C[C@@H](O)[C@]5(C)[C@@H](C7=CC(=O)OC7)CC[C@]65O)C4)O[C@@H]3C)O[C@@H]2C)O[C@H](C)[C@H]1O[C@@H]1O[C@H](CO)[C@@H](O)[C@H](O)[C@H]1O (some centres undefined) | 7.47 µM
8 | CO[C@H]1[C@H](O)[C@H](O[C@H]2CC[C@]3(C)C4CC[C@]5(C)C(C6=CC(=O)OC6)CC[C@]5(O)C4CC[C@@H]3C2)O[C@@H](C)[C@@H]1O (some centres undefined) | 0.0786 µM
9 | C[C@@]1(C(=O)O)CC[C@]2(C)CC[C@]3(C)C4=CC=C5C=C(O)C(=O)C=C5[C@]4(C)CC[C@@]3(C)[C@@H]2C1 | 4.63 µM

From PubChem BioAssay AID1583 (NINDS Approved Drug Screening Program, 2009)
